Earlier results on one compound are cited in US20130143897A1, “ORAL CONTROLLED RELEASE PHARMACEUTICAL COMPOSITIONS OF BLONANSERIN” (LUPIN LIMITED, priority 2010, published 2013).

Molecules are shown by their SMILES.

The target of one data set is serotonin (S2) receptors (Homo sapiens, UniProt P28223).
The target in the next data set is dopamine (D2) receptors (Homo sapiens, UniProt P14416).
dopamine (D2) receptors, sequence (P14416 whole entry): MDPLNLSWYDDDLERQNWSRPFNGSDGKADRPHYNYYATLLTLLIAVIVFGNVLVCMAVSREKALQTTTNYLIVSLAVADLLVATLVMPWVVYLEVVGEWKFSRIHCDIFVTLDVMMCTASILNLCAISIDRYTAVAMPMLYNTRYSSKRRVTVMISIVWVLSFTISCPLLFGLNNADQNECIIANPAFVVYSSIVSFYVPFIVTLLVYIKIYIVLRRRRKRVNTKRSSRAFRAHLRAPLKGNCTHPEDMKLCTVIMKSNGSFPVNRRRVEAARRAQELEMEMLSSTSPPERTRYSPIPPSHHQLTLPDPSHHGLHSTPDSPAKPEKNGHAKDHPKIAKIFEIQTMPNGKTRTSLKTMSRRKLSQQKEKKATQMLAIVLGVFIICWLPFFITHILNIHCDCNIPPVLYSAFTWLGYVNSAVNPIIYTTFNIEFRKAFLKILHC

serotonin (S2) receptors, sequence (P28223 whole entry): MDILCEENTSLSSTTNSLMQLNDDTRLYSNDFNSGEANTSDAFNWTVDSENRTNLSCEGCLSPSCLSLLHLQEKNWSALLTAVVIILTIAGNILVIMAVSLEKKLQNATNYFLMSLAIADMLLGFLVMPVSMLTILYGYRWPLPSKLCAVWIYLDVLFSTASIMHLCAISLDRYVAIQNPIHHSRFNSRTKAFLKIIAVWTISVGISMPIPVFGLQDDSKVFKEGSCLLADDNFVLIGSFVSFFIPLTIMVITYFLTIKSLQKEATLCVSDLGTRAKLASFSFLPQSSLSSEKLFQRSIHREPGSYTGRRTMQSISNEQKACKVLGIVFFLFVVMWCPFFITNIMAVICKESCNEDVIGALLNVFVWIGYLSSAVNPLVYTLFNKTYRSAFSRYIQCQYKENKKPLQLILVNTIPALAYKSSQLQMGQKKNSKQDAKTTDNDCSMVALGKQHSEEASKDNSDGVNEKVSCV

With `CCN1CCN(c2cc(-c3ccc(F)cc3)c3c(n2)CCCCCC3)CC1` [Blonanserin, 2-(4-Ethyl-1-piperazinyl)-4-(4-fluorophenyl)-5,6,7,8,9,10-hexahydrocycloocta[b]pyridine], the solubility in water entry was “poor”. Also, the “binding property to serotonin (S2) receptors” value on serotonin (S2) receptors is “potent”. On dopamine (D2) receptors, the “binding property to dopamine (D2) receptors” value is recorded as “potent”.
